In patent US6756375B2, “10-Aryl-11h-benzo[b]fluorene derivatives and analogs for medicinal use” (Akzo Nobel N.V., priority 2000, dated 2004):

These molecules were tested against human estrogen receptor β (hERβ) (Homo sapiens, UniProt Q92731) (assay: Antiestrogenic activity in the in vitro bioassay: recombinant CHO cells co-transfected with hERβ, rat oxytocin promoter and luciferase reporter gene). Settings: potency ratio relative to standard ICI 164.384; inhibition of estradiol-induced luciferase transactivation via hERβ in CHO cells.
Type: cell-based
Description: The estrogenic and antiestrogenic activity of compounds is determined in an in vitro bioassay with recombinant Chinese hamster ovary (CHO) cells stably co-transfected with the human estrogen receptor α (hERα) or β receptor (hERβ), the rat oxytocin promoter (RO) and the luciferase reporter gene (LUC). The estrogenic activity (potency ratio) of a test compound to stimulate the transactivation of the enzyme luciferase mediated via the estrogen receptors hERα or hERβ is compared with the standard estrogen estradiol. The antiestrogenic activity (potency ratio) of a test compound to inhibit the transactivation of the enzyme luciferase mediated via the estrogen receptors hERα or hERβ by the estrogen estradiol is compared with the standard ICI 164.384 (=(7α,17β)-N-butyl-3,17-dihydroxy-N-methylestra-1,3,5(10)-triene-7-undecanamide).

Sequence of human estrogen receptor β (hERβ) (Q92731 whole entry): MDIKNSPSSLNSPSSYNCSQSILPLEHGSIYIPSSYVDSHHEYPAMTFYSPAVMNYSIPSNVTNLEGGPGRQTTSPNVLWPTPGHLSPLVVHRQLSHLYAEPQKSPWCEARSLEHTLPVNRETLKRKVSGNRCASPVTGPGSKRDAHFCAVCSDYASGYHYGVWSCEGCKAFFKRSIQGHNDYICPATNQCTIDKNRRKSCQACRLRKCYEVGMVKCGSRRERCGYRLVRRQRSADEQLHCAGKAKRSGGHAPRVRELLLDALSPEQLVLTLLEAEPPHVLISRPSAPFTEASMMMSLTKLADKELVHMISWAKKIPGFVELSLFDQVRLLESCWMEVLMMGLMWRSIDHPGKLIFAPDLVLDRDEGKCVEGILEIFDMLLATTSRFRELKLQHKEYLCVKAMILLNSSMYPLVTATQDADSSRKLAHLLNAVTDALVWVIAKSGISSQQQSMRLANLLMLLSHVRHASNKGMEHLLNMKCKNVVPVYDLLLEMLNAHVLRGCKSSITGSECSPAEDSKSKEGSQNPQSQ

Which ERβ antagonism does the source give for Oc1ccc2c(c1)Cc1c-2cc2ccc(O)cc2c1-c1ccc(F)cc1 [Compound 5l] here?
Its ERβ antagonism is “++ (> 40%: ++)”.

With Oc1ccc2c(c1)Cc1c-2cc2ccc(O)cc2c1-c1ccccc1 [Compound 5v] as the molecule, how does the ERβ antagonism read?
The ERβ antagonism was “+ (5 > 5% (relative to ICI): +)”.

CC(C)c1cccc(-c2c3c(cc4ccc(O)cc24)-c2ccc(O)cc2C3)c1 [Compound 5q] was tested. Which ERβ antagonism did it give?
The ERβ antagonism was “+ (5 > 5% (relative to ICI): +)”.

How did the ERβ antagonism turn out when COc1ccc(-c2c3c(cc4ccc(O)cc24)-c2ccc(O)cc2C3)cc1 [Compound 5k] was run?
Its ERβ antagonism is “+ (5 > 5% (relative to ICI): +)”.

Which ERβ antagonism does the source give for Cc1cccc(-c2c3c(cc4ccc(O)cc24)-c2ccc(O)cc2C3)c1 [Compound 5p] here?
The ERβ antagonism was “+ (5 > 5% (relative to ICI): +)”.

Oc1ccc2c(c1)Cc1c-2cc2ccc(O)cc2c1-c1ccc(OC(F)(F)F)cc1 [Compound 5r] was tested. Which ERβ antagonism did it give?
The ERβ antagonism was “++ (> 40%: ++)”.

Cc1ccc(-c2c3c(cc4ccc(O)cc24)-c2ccc(O)cc2C3)cc1 [Compound 5e] was tested. Which ERβ antagonism did it give?
Its ERβ antagonism is “++ (> 40%: ++)”.

For Oc1ccc2c(c1)Cc1c-2cc2ccc(O)cc2c1-c1ccc(C(F)(F)F)cc1 [Compound 5o], which ERβ antagonism is on record?
The ERβ antagonism was “+ (5 > 5% (relative to ICI): +)”.

For Oc1ccc2c(c1)Cc1c-2cc2ccc(O)cc2c1-c1ccc2c(c1)OCO2 [Compound 5g], which ERβ antagonism is on record?
The ERβ antagonism was “+ (5 > 5% (relative to ICI): +)”.

Which ERβ antagonism does the source give for Oc1ccc2c(c1)Cc1c-2cc2ccc(O)cc2c1-c1cccc(C(F)(F)F)c1 [Compound 5d] here?
Its ERβ antagonism is “+ (5 > 5% (relative to ICI): +)”.

How did the ERβ antagonism turn out when COc1cccc(-c2c3c(cc4ccc(O)cc24)-c2ccc(O)cc2C3)c1 [Compound 5c] was run?
The ERβ antagonism was “+ (5 > 5% (relative to ICI): +)”.

How did the ERβ antagonism turn out when Oc1ccc2c(c1)Cc1c-2cc2ccc(O)cc2c1-c1ccc(-c2ccccc2)c(F)c1 [Compound 5s] was run?
Its ERβ antagonism is “+ (5 > 5% (relative to ICI): +)”.

For Oc1ccc2c(c1)Cc1c-2cc2ccc(O)cc2c1-c1ccc(Cl)cc1 [Compound 5a], which ERβ antagonism is on record?
The ERβ antagonism was “+ (5 > 5% (relative to ICI): +)”.

Which ERβ antagonism does the source give for Oc1ccc2c(c1)Cc1c-2cc2ccc(O)cc2c1-c1ccccc1C(F)(F)F [Compound 5u] here?
The ERβ antagonism was “++ (> 40%: ++)”.

Oc1ccc2c(c1)Cc1c-2cc2ccc(O)cc2c1-c1ccc(Cl)c(Cl)c1 [Compound 5m] was tested. Which ERβ antagonism did it give?
The ERβ antagonism was “++ (> 40%: ++)”.

Oc1ccc2c(c1)Cc1c-2cc2ccc(O)cc2c1-c1ccc(F)c(Cl)c1 [Compound 5f] was tested. Which ERβ antagonism did it give?
Its ERβ antagonism is “+ (5 > 5% (relative to ICI): +)”.

Which ERβ antagonism does the source give for Oc1ccc2c(c1)Cc1c-2cc2ccc(O)cc2c1-c1cccc(F)c1 [Compound 5j] here?
Its ERβ antagonism is “+ (5 > 5% (relative to ICI): +)”.

With Oc1ccc2c(c1)Cc1c-2cc2ccc(O)cc2c1-c1cccc(Cl)c1 [Compound 5n] as the molecule, how does the ERβ antagonism read?
Its ERβ antagonism is “+ (5 > 5% (relative to ICI): +)”.

Oc1ccc2c(c1)Cc1c-2cc2ccc(O)cc2c1-c1ccc(-c2ccccc2)cc1 [Compound 5h] was tested. Which ERβ antagonism did it give?
The ERβ antagonism was “+ (5 > 5% (relative to ICI): +)”.

For Oc1ccc2c(c1)Cc1c-2cc2ccc(O)cc2c1-c1ccc(OCCN2CCCCC2)cc1 [Compound 9], which ERβ antagonism is on record?
Its ERβ antagonism is “++ (> 40%: ++)”.

For Oc1ccc2c(c1)Cc1c-2cc2ccc(O)cc2c1-c1ccc2ccccc2c1 [Compound 5b], which ERβ antagonism is on record?
The ERβ antagonism was “+ (5 > 5% (relative to ICI): +)”.
